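GI50: concentration for 50% inhibition of growth. At the TGI there is no net growth.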
Key:
Experiment in all cases: NCI anticancer screen, dose series, 384-well format
ACHN renal = test system: ACHN renal
MCF7 breast = test system: MCF7 breast
UACC-257 melanoma = test system: UACC-257 melanoma
MDA-MB-435 melanoma = test system: MDA-MB-435 melanoma
BT-549 breast = test system: BT-549 breast
MALME-3M melanoma = test system: MALME-3M melanoma
RXF 393 renal = test system: RXF 393 renal
RPMI-8226 leukemia = test system: RPMI-8226 leukemia
HL-60(TB) leukemia = test system: HL-60(TB) leukemia
NCI-H23 lung = test system: NCI-H23 lung
OVCAR-8 ovarian = test system: OVCAR-8 ovarian
NCI-H460 NSCLC = test system: NCI-H460 NSCLC
NCI/ADR-RES ovarian = test system: NCI/ADR-RES ovarian
OVCAR-4 ovarian = test system: OVCAR-4 ovarian
UACC-62 melanoma = test system: UACC-62 melanoma
SF-268 CNS = test system: SF-268 CNS
A498 renal = test system: A498 renal
SN12C renal = test system: SN12C renal
SW-620 colon = test system: SW-620 colon
HS 578T breast = test system: HS 578T breast
SK-MEL-5 melanoma = test system: SK-MEL-5 melanoma
IGROV1 ovarian = test system: IGROV1 ovarian
CAKI-1 renal = test system: CAKI-1 renal
SK-MEL-2 melanoma = test system: SK-MEL-2 melanoma
COLO 205 colon = test system: COLO 205 colon
SF-295 CNS = test system: SF-295 CNS
KM12 colon = test system: KM12 colon
M14 melanoma = test system: M14 melanoma
MOLT-4 leukemia = test system: MOLT-4 leukemia
SR leukemia = test system: SR leukemia
NCI-H322M lung = test system: NCI-H322M lung
SK-MEL-28 melanoma = test system: SK-MEL-28 melanoma
SNB-75 CNS = test system: SNB-75 CNS
HCC-2998 colon = test system: HCC-2998 colon
PC-3 prostate = test system: PC-3 prostate
OVCAR-5 ovarian = test system: OVCAR-5 ovarian
HOP-92 NSCLC = test system: HOP-92 NSCLC
TK-10 renal = test system: TK-10 renal
DU-145 prostate = test system: DU-145 prostate
SF-539 CNS = test system: SF-539 CNS
HT29 colon = test system: HT29 colon
T-47D breast = test system: T-47D breast
HCT-15 colon = test system: HCT-15 colon
CCRF-CEM leukemia = test system: CCRF-CEM leukemia
NCI-H226 lung = test system: NCI-H226 lung
SK-OV-3 ovarian = test system: SK-OV-3 ovarian
EKVX NSCLC = test system: EKVX NSCLC
OVCAR-3 ovarian = test system: OVCAR-3 ovarian
MDA-MB-231 breast = test system: MDA-MB-231 breast
U251 glioblastoma = test system: U251 glioblastoma
786-0 renal = test system: 786-0 renal
SNB-19 CNS = test system: SNB-19 CNS
HOP-62 NSCLC = test system: HOP-62 NSCLC
NCI-H522 lung = test system: NCI-H522 lung
A549 NSCLC = test system: A549 NSCLC
MDA-MB-468 breast = test system: MDA-MB-468 breast

With Nc1nc(F)nc2c1ncn2C1OC(CO)C(O)C1O (configuration not stated) the GI50 (ACHN renal) was 21.7 µM, the TGI (ACHN renal) was 48.5 µM and the GI50 (MCF7 breast) was 26.6 µM. The TGI (MCF7 breast) was over 100 µM, the GI50 (UACC-257 melanoma) was 50.8 µM and the TGI (UACC-257 melanoma) was over 100 µM. For the same molecule, the GI50 (MDA-MB-435 melanoma) was 12.4 µM, the TGI (MDA-MB-435 melanoma) was over 100 µM and the GI50 (BT-549 breast) was 12 µM. It also gave a TGI (BT-549 breast) of 46.1 µM, a GI50 (MALME-3M melanoma) of 1.81 µM and a TGI (MALME-3M melanoma) of 8.06 µM. The GI50 (RXF 393 renal) was 44.2 µM, the TGI (RXF 393 renal) was over 100 µM and the GI50 (RPMI-8226 leukemia) was 45.1 µM. It also gave a TGI (RPMI-8226 leukemia) of over 100 µM, a GI50 (HL-60(TB) leukemia) of 2.12 µM and a TGI (HL-60(TB) leukemia) of 3.75 µM. For the same molecule, the GI50 (NCI-H23 lung) was 3.55 µM, the TGI (NCI-H23 lung) was 15.7 µM and the GI50 (OVCAR-8 ovarian) was 1.98 µM. The TGI (OVCAR-8 ovarian) was 4.61 µM, the GI50 (NCI-H460 NSCLC) was 16.5 µM and the TGI (NCI-H460 NSCLC) was 35.8 µM. For the same molecule, the GI50 (NCI/ADR-RES ovarian) was 2.34 µM, the TGI (NCI/ADR-RES ovarian) was 6.41 µM and the GI50 (OVCAR-4 ovarian) was over 100 µM. The TGI (OVCAR-4 ovarian) was over 100 µM, the GI50 (UACC-62 melanoma) was 28.8 µM and the TGI (UACC-62 melanoma) was 96.8 µM. For the same molecule, the GI50 (SF-268 CNS) was 19.8 µM, the TGI (SF-268 CNS) was 54.7 µM and the GI50 (A498 renal) was 19.4 µM. It also gave a TGI (A498 renal) of 73.7 µM, a GI50 (SN12C renal) of 6.16 µM and a TGI (SN12C renal) of 24.6 µM. The GI50 (SW-620 colon) was 49.8 µM, the TGI (SW-620 colon) was over 100 µM and the GI50 (HS 578T breast) was 30.6 µM. For the same molecule, the TGI (HS 578T breast) was over 100 µM, the GI50 (SK-MEL-5 melanoma) was 14.1 µM and the TGI (SK-MEL-5 melanoma) was 43.4 µM. For the same molecule, the GI50 (IGROV1 ovarian) was 44.8 µM, the TGI (IGROV1 ovarian) was over 100 µM and the GI50 (CAKI-1 renal) was 17.4 µM. The TGI (CAKI-1 renal) was 50.3 µM, the GI50 (SK-MEL-2 melanoma) was 4.7 µM and the TGI (SK-MEL-2 melanoma) was 16.6 µM. It also gave a GI50 (COLO 205 colon) of 11 µM, a TGI (COLO 205 colon) of 37.3 µM and a GI50 (SF-295 CNS) of 76.2 µM. The TGI (SF-295 CNS) was over 100 µM, the GI50 (KM12 colon) was 26.4 µM and the TGI (KM12 colon) was over 100 µM. The GI50 (M14 melanoma) was 2.6 µM, the TGI (M14 melanoma) was 8.62 µM and the GI50 (MOLT-4 leukemia) was 1.15 µM. The TGI (MOLT-4 leukemia) was 2.37 µM, the GI50 (SR leukemia) was over 100 µM and the TGI (SR leukemia) was over 100 µM. The GI50 (NCI-H322M lung) was over 100 µM, the TGI (NCI-H322M lung) was over 100 µM and the GI50 (SK-MEL-28 melanoma) was 3.11 µM. The TGI (SK-MEL-28 melanoma) was 15.2 µM, the GI50 (SNB-75 CNS) was 23.1 µM and the TGI (SNB-75 CNS) was over 100 µM. For the same molecule, the GI50 (HCC-2998 colon) was 2.11 µM, the TGI (HCC-2998 colon) was 8.44 µM and the GI50 (PC-3 prostate) was 10.8 µM. The TGI (PC-3 prostate) was over 100 µM, the GI50 (OVCAR-5 ovarian) was 34.2 µM and the TGI (OVCAR-5 ovarian) was over 100 µM. For the same molecule, the GI50 (HOP-92 NSCLC) was 7.81 µM, the TGI (HOP-92 NSCLC) was 56.8 µM and the GI50 (TK-10 renal) was over 100 µM. The TGI (TK-10 renal) was over 100 µM, the GI50 (DU-145 prostate) was 15.5 µM and the TGI (DU-145 prostate) was 57.5 µM. The GI50 (SF-539 CNS) was 59 µM, the TGI (SF-539 CNS) was over 100 µM and the GI50 (HT29 colon) was 81.4 µM. It also gave a TGI (HT29 colon) of over 100 µM, a GI50 (T-47D breast) of 34.9 µM and a TGI (T-47D breast) of over 100 µM. For the same molecule, the GI50 (HCT-15 colon) was 32.2 µM, the TGI (HCT-15 colon) was over 100 µM and the GI50 (CCRF-CEM leukemia) was 0.316 µM. For the same molecule, the TGI (CCRF-CEM leukemia) was 1.23 µM, the GI50 (NCI-H226 lung) was 95.9 µM and the TGI (NCI-H226 lung) was over 100 µM. The GI50 (SK-OV-3 ovarian) was 10.1 µM, the TGI (SK-OV-3 ovarian) was 44.1 µM and the GI50 (EKVX NSCLC) was over 100 µM. For the same molecule, the TGI (EKVX NSCLC) was over 100 µM, the GI50 (OVCAR-3 ovarian) was 7.9 µM and the TGI (OVCAR-3 ovarian) was over 100 µM. For the same molecule, the GI50 (MDA-MB-231 breast) was 6.96 µM, the TGI (MDA-MB-231 breast) was 47.9 µM and the GI50 (U251 glioblastoma) was 36.7 µM. For the same molecule, the TGI (U251 glioblastoma) was over 100 µM, the GI50 (786-0 renal) was 17.8 µM and the TGI (786-0 renal) was 56 µM. The GI50 (SNB-19 CNS) was 7.28 µM, the TGI (SNB-19 CNS) was 42.8 µM and the GI50 (HOP-62 NSCLC) was 5.5 µM. The TGI (HOP-62 NSCLC) was 21 µM, the GI50 (NCI-H522 lung) was 4.68 µM and the TGI (NCI-H522 lung) was 36.9 µM. For the same molecule, the GI50 (A549 NSCLC) was 29.8 µM, the TGI (A549 NSCLC) was over 100 µM and the GI50 (MDA-MB-468 breast) was 26.5 µM. It also gave a TGI (MDA-MB-468 breast) of 82.8 µM.

Reference: PubChem BioAssay (NCI)
